Laboratory results taken from patent US20260125440A1, “INCRETIN ANALOGS AND USES THEREOF” (ELI LILLY AND COMPANY, priority 2019, published 2026).
Where “and” joins values, the source holds several entries; their conditions need not be identical. Equal entries are not always repeated. Where two headings read alike, the source gives them in different places. Marks after values point to notes of the source that are not given here.

What was measured:
[1] = Pharmacokinetics in male diet-induced obese (DIO) mice; format: in vivo; details: mouse, subcutaneous, single 200 nmol/kg SQ dose, plasma
Protocol: Methods: Male DIO mice are administered a single SQ dose of 200 nmol/kg (0.98 mg/kg) of Example compounds in 40 mM Tris-HCL pH8 buffer with 0.02% PS80 at a volume of 10 mL/kg. […] Plasma concentration of Example compounds are determined by a qualified Liquid Chromatography Mass Spectrometry (LC/MS) method at Q Squared Solutions BioSciences LLC (Ithaca, NY). The Example compounds and an internal standard are extracted from 100% mouse plasma using protein precipitation followed by solid phase extraction. The intact mass of the Example compounds, which includes peptide plus acyl chain, are detected by a Q-Exactive™ Orbitrap® mass spectrometer.

hGLP-1R = biological target: T1, hGLP-1R (Homo sapiens, UniProt P43220); test: Functional cAMP assay in HEK-293 cells expressing hGLP-1R; format: cell-based; details: percent of maximal response to GLP-1(7-36)NH2, read-out: hGLP-1R Emax
T1 construct: expressed in transfected cells; host or cells: HEK-293 clonal cell line
Protocol: (§1) Experiments also are performed under identical assay conditions with the addition of 1.0% fatty acid free, globulin free human serum albumin (Sigma Cat #A3782).
(§2) After a 30-min incubation at 37° C., the resulting increase in intracellular cAMP is quantitatively determined using a CisBio cAMP Dynamic 2 HTRF Assay Kit (62AM4PEJ). Briefly, cAMP levels within the cell are detected by adding the cAMP-d2 conjugate in cell lysis buffer (10 μL) followed by the antibody anti-cAMP-Eu^3+-Cryptate, also in cell lysis buffer (10 μL). The resulting competitive assay is incubated for at least 60 min at room temperature, and then is detected using a PerkinElmer Envision® instrument with excitation at 320 nm and emission at 665 nm and 620 nm. Envision units (emission at 665 nm/620 nm*10,000) are inversely proportional to the amount of cAMP present and are converted to nM cAMP per well using a cAMP standard curve. […] A relative EC50 value and percent top (Emax) are derived by non-linear regression analysis using the percent maximal response vs. the concentration of peptide added, fitted to a four-parameter logistic equation.

hGCGR = biological target: T2, hGCGR (Homo sapiens, UniProt P47871, DEL55-55); test: Functional cAMP assay in HEK-293 cells expressing hGCGR; format: cell-based; details: percent of maximal response to GCG
T2 construct: expressed in transfected cells; host or cells: HEK-293 clonal cell line
Protocol: as §1, §2

hGIPR = biological target: T3, hGIPR (Homo sapiens, UniProt P48546); test: Functional cAMP assay in HEK-293 cells expressing hGIPR; format: cell-based; details: percent of maximal response to GIP(1-42)NH2, read-out: hGIPR Emax
T3 construct: expressed in transfected cells; host or cells: HEK-293 clonal cell line
T3 sequence (P48546 22-466): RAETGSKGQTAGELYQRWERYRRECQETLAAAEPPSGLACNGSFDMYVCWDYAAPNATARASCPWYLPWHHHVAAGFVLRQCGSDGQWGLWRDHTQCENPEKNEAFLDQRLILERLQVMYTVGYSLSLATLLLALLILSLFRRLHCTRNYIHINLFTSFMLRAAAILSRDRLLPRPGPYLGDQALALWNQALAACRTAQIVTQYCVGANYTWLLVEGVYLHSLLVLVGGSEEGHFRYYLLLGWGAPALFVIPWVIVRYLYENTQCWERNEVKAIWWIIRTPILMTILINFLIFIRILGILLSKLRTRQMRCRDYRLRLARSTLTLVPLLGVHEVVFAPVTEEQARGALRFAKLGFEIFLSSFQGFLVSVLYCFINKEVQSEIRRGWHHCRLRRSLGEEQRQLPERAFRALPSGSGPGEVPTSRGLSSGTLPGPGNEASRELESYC
Protocol: as §1, §2

[2] = Weight loss, metabolism and body composition in DIO C57/B16 mice; format: in vivo
Protocol: Methods: To investigate the effects of the Example compounds on parameters such as weight loss, metabolism and body composition, the Example compounds are dosed to C57B16 DIO mice. These animals, although not diabetic, display insulin resistance and dyslipidemia, all characteristics of metabolic syndrome, after being placed on a high fat diet for 20 weeks.
Here, DIO male C57/B16 mice at 20 weeks old are maintained on a calorie-rich diet are used in the following studies. […] After a 3-week acclimation to the facility, which includes 1 week of vehicle acclimation dosing, the mice are randomized according to their body weight, so each experimental group of animals would have similar body weight.
All groups contain 6 mice. […] Body weight and food intake are measured daily throughout the study, including 1 day after last dose (Day 15).
Absolute changes in body weight are calculated by subtracting the body weight of the same animal prior to the first injection of molecule. On Days 0 and 15, total fat mass is measured by nuclear magnetic resonance (NMR) using an Echo Medical System (Houston, TX) instrument. On Day 15, metabolic parameters are measured using Accu-Chek® Aviva® Glucometers (Roche; Indianapolis, IN) or a Hitachi clinical blood analyzer (Roche, Indianapolis, IN). Plasma insulin is determined using an electrochemiluminescence assay (Meso Scale Discovery, Rockville, MD).
Data are presented as mean±t SEM of 6animals per group in Tables 7 and 8 below. Statistical analysis is performed using repeated measures ANOVA, followed by Dunneti's method for multiple comparisons. Significant differences are identified as * with p<0.05.

[3] = Insulin secretion during ivGTT in male Wistar rats; format: in vivo; details: Sema: semaglutide 10 nmol/kg positive control, one per run of each Example compound
Protocol: Methods: An intravenous glucose tolerance test (ivGTT) in Male Wistar rats is used to estimate insulinotropic potency of the Example compounds. A GLP-1R agonist, semaglutide, is used as a positive control. […] Semaglutide is used as positive control in connection with each run of Example compounds ([…] dose).
A time 0 blood sample is collected into EDTA tubes after which glucose is administered ([…], 5 mL/kg). Blood samples are collected for glucose and insulin levels at time 2, 4, 6, 10, 20 and 30 min post intravenous administration of glucose. Plasma insulin is determined using an electrochemiluminescence assay (Meso Scale; Rockville, MD).
Statistical analysis is performed using JMP with a one-way ANOVA followed by Dunnett's comparison to the vehicle control.

[4] = HEK293, 0.1% bovine casein and 1.0% human serum albumin
[5] = 10 nmol/kg SQ daily, day 15 difference vs vehicle, DIO mice

T1 sequence (P43220 24-463): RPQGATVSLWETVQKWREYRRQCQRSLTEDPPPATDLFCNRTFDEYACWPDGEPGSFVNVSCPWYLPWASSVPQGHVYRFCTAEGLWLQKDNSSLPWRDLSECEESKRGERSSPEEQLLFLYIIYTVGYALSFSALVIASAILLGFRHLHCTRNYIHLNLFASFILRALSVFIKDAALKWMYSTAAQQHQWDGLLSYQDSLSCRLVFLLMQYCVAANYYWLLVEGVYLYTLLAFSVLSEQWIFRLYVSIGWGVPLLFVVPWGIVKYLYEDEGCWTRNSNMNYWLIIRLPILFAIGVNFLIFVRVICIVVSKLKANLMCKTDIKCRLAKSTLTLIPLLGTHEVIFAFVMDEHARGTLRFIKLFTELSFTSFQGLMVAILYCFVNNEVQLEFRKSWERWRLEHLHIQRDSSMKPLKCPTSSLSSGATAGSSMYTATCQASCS
T2 sequence (P47871 with tags, fused parts or gaps DEL55-55): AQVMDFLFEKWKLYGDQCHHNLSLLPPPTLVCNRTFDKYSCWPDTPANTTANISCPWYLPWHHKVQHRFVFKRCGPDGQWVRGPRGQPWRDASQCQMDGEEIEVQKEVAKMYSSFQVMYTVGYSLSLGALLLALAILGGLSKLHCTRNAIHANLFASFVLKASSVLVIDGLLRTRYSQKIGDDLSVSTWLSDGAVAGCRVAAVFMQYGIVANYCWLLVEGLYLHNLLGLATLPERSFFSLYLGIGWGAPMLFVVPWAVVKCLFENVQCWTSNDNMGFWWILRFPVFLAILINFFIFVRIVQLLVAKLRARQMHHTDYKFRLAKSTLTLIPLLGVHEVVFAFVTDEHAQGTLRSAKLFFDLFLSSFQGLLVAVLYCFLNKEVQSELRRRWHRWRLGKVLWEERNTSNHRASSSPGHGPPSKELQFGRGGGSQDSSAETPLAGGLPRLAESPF

Compound | AUC(0-inf) [1] [µM·h] | CL/F [1] [mL/min/kg] | Cmax [1] [µM] | Tmax [1] [h] | half-life ([1]; read-out: t½ (converted)) [h] | Emax (hGLP-1R; [4]) [%] | Emax (hGLP-1R; HEK293, 0.1% bovine casein) [%] | Emax (hGCGR; [4]) [%] | Emax (hGCGR; HEK293, 0.1% bovine casein) [%] | Emax (hGIPR; [4]) [%] | Emax (hGIPR; HEK293, 0.1% bovine casein) [%] | Δ Body Weight (g) ([2]; 10 nmol/kg SQ daily 14 days, day 15, difference vs vehicle, DIO mice) | Δ Cholesterol [2, 5] | Δ Glucose [2, 5] [mg/dL] | Δ Insulin [2, 5] [ng/mL] | Δ Trigs [2, 5] [mg/dL] | Fat Mass (%) ([2]; 10 nmol/kg SQ daily, difference in fat mass between days 0 and 15 (NMR), DIO mice) | Δ Body Weight (%) ([2]; 10 nmol/kg SQ daily, percent decrease between days 1 and 15, DIO mice) | AUC30 min of Insulin After Bolus IV Glucose [3]
CC[C@H](C)[C@H](NC(=O)[C@H](Cc1ccccc1)NC(=O)C(C)(C)NC(=O)[C@](C)(CC(C)C)NC(=O)[C@H](CCC(N)=O)NC(=O)[C@H](C)NC(=O)[C@H](CCCCNC(=O)COCCOCCNC(=O)CC[C@H](NC(=O)CCCCCCCCCCCCCCCCCCC(=O)O)C(=O)O)NC(=O)[C@H](CCCN)NC(=O)[C@H](CC(=O)O)NC(=O)[C@H](CC(C)C)NC(=O)[C@](C)(CC(C)C)NC(=O)[C@@H](NC(=O)[C@H](CO)NC(=O)[C@H](Cc1ccncc1)NC(=O)[C@H](CC(=O)O)NC(=O)[C@H](CO)NC(=O)[C@@H](NC(=O)[C@](C)(Cc1ccccc1F)NC(=O)[C@@H](NC(=O)CNC(=O)[C@H](CCC(N)=O)NC(=O)C(C)(C)NC(=O)[C@@H](N)Cc1ccc(O)cc1)[C@@H](C)O)[C@@H](C)O)[C@@H](C)CC)C(=O)N[C@H](CCC(=O)O)C(=O)N[C@@](C)(Cc1ccc(O)cc1)C(=O)N[C@@H](CC(C)C)C(=O)N[C@@H](CC(C)C)C(=O)N[C@@H](CCC(=O)O)C(=O)NCC(=O)NCC(=O)N1CCC[C@H]1C(=O)N[C@@H](CO)C(=O)N[C@@H](CO)C(=O)NCC(=O)N[C@@H](CCC(=O)O)C(=O)N1CCC[C@H]1C(=O)N1CCC[C@H]1C(=O)N1CCC[C@H]1C(=O)N[C@@H](CO)C(N)=O [Example 3] | 32.8 | 0.102 | 1.07 | 12 | 13 | 111 ± 5 | 107 ± 2 | 97 ± 9 | 99 ± 4 | 105 ± 5 | 103 ± 2 | – | – | – | – | – | – | – | –
semaglutide | – | – | – | – | – | – | – | – | – | – | – | −9.23 ± 0.58* g | −73.33 ± 4.17* mg/dL | -18.33 ± 2.81 | -4.15 ± 2.23 | 16.00 ± 0.38 | −15.14 ± 1.93* % | −21.98 ± 2.58* % | 76.4 and 76.6 and 80.9
